Source: ChEMBL document CHEMBL3352553, “Discovery of (E)-5-(benzylideneamino)-1H-benzo[d]imidazol-2(3H)-one derivatives as inhibitors for PTK6” (Bioorg Med Chem Lett, 2014)

Key:
[1] = target: T1, Protein-tyrosine kinase 6 (Homo sapiens, UniProt Q13882); test: Inhibition of GST-tagged PTK6 (unknown origin) assessed as phosphorylated tyrosines after 20 mins by ELISA
[2] = target: T1, Protein-tyrosine kinase 6; test: Inhibition of PTK6 (unknown origin) expressed in HEK293 cells assessed as decrease in tyrosine phosphorylation by chemiluminescence assay; assay type: cell-based
[3] = target: T2, Cytoplasmic tyrosine-protein kinase BMX (Homo sapiens, UniProt P51813); test: Inhibition of Bmx (unknown origin) expressed in HEK293 cells assessed as decrease in phosphorylation by chemiluminescence assay; assay type: cell-based
T2 sequence (P51813 whole entry): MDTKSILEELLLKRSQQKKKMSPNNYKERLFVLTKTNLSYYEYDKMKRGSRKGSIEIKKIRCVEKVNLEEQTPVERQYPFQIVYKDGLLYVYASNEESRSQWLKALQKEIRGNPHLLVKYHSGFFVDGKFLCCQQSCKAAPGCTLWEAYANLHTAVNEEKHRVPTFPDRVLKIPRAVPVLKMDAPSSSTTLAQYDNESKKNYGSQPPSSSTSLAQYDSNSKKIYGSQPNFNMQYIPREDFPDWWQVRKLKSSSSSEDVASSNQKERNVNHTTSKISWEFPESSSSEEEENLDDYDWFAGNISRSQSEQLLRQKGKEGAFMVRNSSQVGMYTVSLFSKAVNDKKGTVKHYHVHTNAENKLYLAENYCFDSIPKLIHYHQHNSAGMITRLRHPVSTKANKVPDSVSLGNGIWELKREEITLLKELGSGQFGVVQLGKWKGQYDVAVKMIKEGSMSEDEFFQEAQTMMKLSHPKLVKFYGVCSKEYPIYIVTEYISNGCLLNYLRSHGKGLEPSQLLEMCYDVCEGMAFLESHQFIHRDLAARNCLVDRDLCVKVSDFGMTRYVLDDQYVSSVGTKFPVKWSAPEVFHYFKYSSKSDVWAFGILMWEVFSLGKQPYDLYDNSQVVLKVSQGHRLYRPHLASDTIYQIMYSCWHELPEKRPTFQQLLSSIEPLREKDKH

[4] = target: Proto-oncogene tyrosine-protein kinase Src (Homo sapiens, UniProt P12931); test: Inhibition of Src (unknown origin) expressed in HEK293 cells assessed as decrease in phosphorylation by chemiluminescence assay; assay type: cell-based
[5] = target: Epidermal growth factor receptor (Homo sapiens, UniProt P00533)
Description: Inhibition of EGFR (unknown origin) expressed in HEK293 cells assessed as decrease in phosphorylation by chemiluminescence assay

[6] = system: HFF; test: Cytotoxicity against human foreskin fibroblast after 24 hrs by MTT assay; assay type: cell-based
[7] = target: Tyrosine-protein kinase Fyn (Homo sapiens, UniProt P06241); test: Inhibition of Fyn (unknown origin) expressed in HEK293 cells assessed as decrease in phosphorylation by chemiluminescence assay; assay type: cell-based
[8] = system: HFF; test: Cytotoxicity against human foreskin fibroblast up to 100 uM after 24 hrs by MTT assay; assay type: cell-based

T1 sequence (Q13882 whole entry): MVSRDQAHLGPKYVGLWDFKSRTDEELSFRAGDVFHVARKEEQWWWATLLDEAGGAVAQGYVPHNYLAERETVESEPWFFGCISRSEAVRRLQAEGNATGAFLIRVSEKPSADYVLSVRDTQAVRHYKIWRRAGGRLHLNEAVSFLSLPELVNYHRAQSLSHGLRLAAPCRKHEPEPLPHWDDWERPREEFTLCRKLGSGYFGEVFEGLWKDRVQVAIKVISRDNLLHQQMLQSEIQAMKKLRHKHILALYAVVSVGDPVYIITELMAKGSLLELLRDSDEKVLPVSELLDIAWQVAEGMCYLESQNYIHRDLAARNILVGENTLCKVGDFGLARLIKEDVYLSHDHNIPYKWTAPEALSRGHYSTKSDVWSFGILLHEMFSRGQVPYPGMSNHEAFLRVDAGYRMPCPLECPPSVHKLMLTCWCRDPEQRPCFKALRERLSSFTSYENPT
Sequence of Proto-oncogene tyrosine-protein kinase Src (P12931 2-536 limits assumed): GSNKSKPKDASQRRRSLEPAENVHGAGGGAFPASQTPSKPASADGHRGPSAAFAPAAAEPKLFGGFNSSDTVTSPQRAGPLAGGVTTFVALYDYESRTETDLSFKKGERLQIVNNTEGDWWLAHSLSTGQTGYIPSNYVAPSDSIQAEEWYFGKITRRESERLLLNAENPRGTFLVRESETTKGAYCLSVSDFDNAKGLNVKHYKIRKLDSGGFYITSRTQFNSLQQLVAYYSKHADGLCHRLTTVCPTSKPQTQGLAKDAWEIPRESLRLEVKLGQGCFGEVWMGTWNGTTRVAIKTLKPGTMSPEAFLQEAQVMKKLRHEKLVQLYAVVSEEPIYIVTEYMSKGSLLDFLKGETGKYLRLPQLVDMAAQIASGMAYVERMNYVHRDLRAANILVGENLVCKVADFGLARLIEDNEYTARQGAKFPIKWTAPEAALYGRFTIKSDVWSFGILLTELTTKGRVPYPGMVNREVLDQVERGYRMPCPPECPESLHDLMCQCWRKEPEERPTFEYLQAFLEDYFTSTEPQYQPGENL
Sequence of Tyrosine-protein kinase Fyn (P06241 whole entry): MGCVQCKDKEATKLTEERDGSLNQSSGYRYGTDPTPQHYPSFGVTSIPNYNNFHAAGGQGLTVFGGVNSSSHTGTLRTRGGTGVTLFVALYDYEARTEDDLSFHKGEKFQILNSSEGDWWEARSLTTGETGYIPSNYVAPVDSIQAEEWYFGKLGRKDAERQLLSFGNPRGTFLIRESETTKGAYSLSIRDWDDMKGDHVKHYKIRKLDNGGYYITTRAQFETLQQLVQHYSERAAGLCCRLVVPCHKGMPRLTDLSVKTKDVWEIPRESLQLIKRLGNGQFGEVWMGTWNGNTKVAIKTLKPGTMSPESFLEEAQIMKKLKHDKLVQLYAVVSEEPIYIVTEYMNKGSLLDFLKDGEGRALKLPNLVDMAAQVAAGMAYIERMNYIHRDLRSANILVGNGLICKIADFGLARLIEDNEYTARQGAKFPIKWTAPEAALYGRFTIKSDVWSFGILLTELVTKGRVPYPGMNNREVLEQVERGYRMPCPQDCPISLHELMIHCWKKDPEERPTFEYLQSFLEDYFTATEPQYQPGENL
Sequence of Epidermal growth factor receptor (P00533 whole entry): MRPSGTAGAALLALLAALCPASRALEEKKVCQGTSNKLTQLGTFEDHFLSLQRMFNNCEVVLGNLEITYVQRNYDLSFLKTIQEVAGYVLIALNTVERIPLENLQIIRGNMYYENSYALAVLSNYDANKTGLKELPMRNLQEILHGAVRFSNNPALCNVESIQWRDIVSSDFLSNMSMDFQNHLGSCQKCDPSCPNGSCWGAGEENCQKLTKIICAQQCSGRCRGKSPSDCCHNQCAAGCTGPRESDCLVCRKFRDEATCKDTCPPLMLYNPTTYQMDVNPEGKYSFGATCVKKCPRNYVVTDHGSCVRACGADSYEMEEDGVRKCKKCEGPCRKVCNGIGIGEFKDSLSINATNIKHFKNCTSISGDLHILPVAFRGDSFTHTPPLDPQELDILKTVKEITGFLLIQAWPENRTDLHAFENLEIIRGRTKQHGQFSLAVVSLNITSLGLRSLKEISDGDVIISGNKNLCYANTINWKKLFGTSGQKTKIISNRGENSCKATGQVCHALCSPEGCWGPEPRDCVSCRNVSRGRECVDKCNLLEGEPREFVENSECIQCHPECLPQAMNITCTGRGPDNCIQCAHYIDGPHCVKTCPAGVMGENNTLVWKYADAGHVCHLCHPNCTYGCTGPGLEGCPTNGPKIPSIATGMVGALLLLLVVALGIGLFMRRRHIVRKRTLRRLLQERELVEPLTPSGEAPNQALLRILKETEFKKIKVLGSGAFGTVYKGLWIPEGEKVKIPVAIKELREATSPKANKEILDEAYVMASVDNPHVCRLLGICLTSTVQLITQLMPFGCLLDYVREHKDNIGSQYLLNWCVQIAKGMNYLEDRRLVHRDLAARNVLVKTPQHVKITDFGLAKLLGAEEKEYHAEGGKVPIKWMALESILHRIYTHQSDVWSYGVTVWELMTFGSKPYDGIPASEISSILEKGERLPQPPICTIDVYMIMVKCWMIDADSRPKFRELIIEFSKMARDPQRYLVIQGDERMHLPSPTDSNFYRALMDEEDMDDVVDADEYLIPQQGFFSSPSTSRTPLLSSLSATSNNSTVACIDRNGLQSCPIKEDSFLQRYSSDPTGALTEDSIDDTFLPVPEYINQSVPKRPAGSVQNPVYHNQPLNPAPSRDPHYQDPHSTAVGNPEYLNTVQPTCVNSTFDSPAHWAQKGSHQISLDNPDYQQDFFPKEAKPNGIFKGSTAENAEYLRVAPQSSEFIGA

SMILES | IC50 [1] [µM] | IC50 [2] [µM] | other results
COc1cc(Br)c(Br)c(/C=N/c2ccc3[nH]cnc3c2)c1O | 0.2 | 5.52 | –
O=c1[nH]c2ccc(/N=C/c3c(O)c(Br)cc(Br)c3Br)cc2[nH]1 | 0.41 | 11.8 | –
COc1cc(Br)c(Br)c(/C=N/c2ccc3[nH]c(=O)[nH]c3c2)c1O | 0.12 | 1.46 | IC50 [3]: 38.6 µM; IC50 [4]: > 100 µM; IC50 [5]: 88.7 µM; Activity [6]: Toxic; IC50 [7]: 38.7 µM; Activity [8]: Toxic
CCOc1cc(Br)cc(/C=N/c2ccc3[nH]c(=O)[nH]c3c2)c1O | 5.83 | 23.5 | –
O=c1[nH]c2ccc(/N=C/c3ccccc3)cc2[nH]1 | > 10 | – | –
CCOc1cc(Cl)c(Cl)c(/C=N/c2ccc3[nH]c(=O)[nH]c3c2)c1O | 1.29 | 3.48 | –
N#C/C(=C\c1c[nH]c2ccccc12)C(=O)c1ccc(O)c(O)c1 | 2.32 | 53.2 | –
CCOc1cc(Br)c(Br)c(/C=N/c2ccc3[nH]cnc3c2)c1O | 0.13 | 4.71 | –
COc1ccc(Br)c(/C=N/c2ccc3[nH]c(=O)[nH]c3c2)c1O | 3.9 | 16.6 | –
O=c1c(-c2ccc(O)cc2)coc2cc(O)cc(O)c12 [GENISTEIN] | – | – | IC50 [3]: 68 µM; IC50 [4]: > 100 µM; IC50 [7]: 58.2 µM
COc1cc(Br)c(Br)c(CNc2ccc3[nH]c(=O)[nH]c3c2)c1O | > 10 | – | –
CCOc1cc(Br)c(Br)c(/C=N/c2ccc3[nH]ccc3c2)c1O | 0.36 | 7.58 | –
COc1cc(Br)c(Br)c(/C=N/c2ccc3scnc3c2)c1O | 1.3 | 4.61 | –
COc1cc(Br)cc(/C=N/c2ccc3[nH]c(=O)[nH]c3c2)c1OC | > 10 | – | –
COc1cc(Br)c(Br)c(/C=N/c2ccc3[nH]ccc3c2)c1O | 0.27 | 3.49 | –
CCOc1cc(Br)c(Br)c(CNc2ccc3[nH]c(=O)[nH]c3c2)c1O | 4.79 | – | –
CCOc1cc(Br)c(Br)c(/C=N/c2ccc3[nH]c(=O)[nH]c3c2)c1O | 0.52 | 1.6 | IC50 [3]: 42.3 µM; IC50 [4]: > 100 µM; IC50 [5]: 76.7 µM; IC50 [7]: 68.5 µM; Activity [8]: Non-toxic
CCOc1cc(Br)c(Br)c(/C=N/c2ccc3scnc3c2)c1O | 1.17 | 2.54 | –

Now from value to compound, other results behind:

IC50 [1] [µM] | IC50 [2] [µM] | SMILES | other results
1.35 | 24.5 | O=c1[nH]c2ccc(/N=C/c3c(O)cccc3Br)cc2[nH]1 | –
4.98 | 58.1 | COc1cc(I)cc(/C=N/c2ccc3[nH]c(=O)[nH]c3c2)c1O | –
4.73 | 52.4 | COc1cc(Br)cc(/C=N/c2ccc3[nH]c(=O)[nH]c3c2)c1O | –
17.1 | > 100 | COc1ccc(Br)cc1/C=N/c1ccc2[nH]c(=O)[nH]c2c1 | –
5.6 | 49 | O=c1[nH]c2ccc(/N=C/c3cc(Br)cc(Br)c3O)cc2[nH]1 | –
> 10 | – | COc1cccc(/C=N/c2ccc3[nH]c(=O)[nH]c3c2)c1O | –
> 10 | – | O=c1[nH]c2ccc(/N=C/c3ccc(O)cc3O)cc2[nH]1 | –
1.68 | 74 | COc1cc(Cl)cc(/C=N/c2ccc3[nH]c(=O)[nH]c3c2)c1O | –
2 | > 100 | O=c1[nH]c2ccc(/N=C/c3ccccc3O)cc2[nH]1 | –
> 10 | – | COc1ccc(/C=N/c2ccc3[nH]c(=O)[nH]c3c2)c(O)c1 | –
> 10 | – | CCOc1cccc(/C=N/c2ccc3[nH]c(=O)[nH]c3c2)c1O | –
1.99 | 51.2 | CCOc1cc(Cl)cc(/C=N/c2ccc3[nH]c(=O)[nH]c3c2)c1O | –
1.41 | > 100 | O=c1[nH]c2ccc(/N=C/c3cc(Cl)ccc3O)cc2[nH]1 | –
1.9 | > 100 | O=c1[nH]c2ccc(/N=C/c3cc(Br)ccc3O)cc2[nH]1 | –
